From patent publication US8192962B2, “Processes for detecting toxic substances” (Daikin Industries, Ltd., priority 2001, dated 2012)

System: Metabolism protein genes
Experiment: DNA chip mRNA expression in yeast, metabolism protein genes (Table 7)
Format: cell-based, Saccharomyces cerevisiae S288C
Method in brief: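 Untreated cultures served as reference for log-phase S288C yeast given a growth-inhibiting, non-lethal toxicant dose for 2 h at 25° C. in YPD. Gene expression was measured on a whole-genome DNA chip from Cy3/Cy5-labeled cDNA.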

S=C([S-])NCCNC(=S)[S-].[Zn+2] [(11), zinc N,N′-ethylenebis(dithiocarbamate)]
The level of expressed mRNA in the presence of chemical substance/The level of expressed mRNA in the absence of chemical substance (yeast gene YJR155W): 15.4 | The level of expressed mRNA in the presence of chemical substance/The level of expressed mRNA in the absence of chemical substance (yeast gene YKL035W): 2.1 | level of expressed mRNA in the presence/in the absence of chemical substance (yeast gene YKL060C): 2.1 | The level of expressed mRNA in the presence of chemical substance/The level of expressed mRNA in the absence of chemical substance (yeast gene YKL091C): 1.7 | The level of expressed mRNA in the presence of chemical substance/The level of expressed mRNA in the absence of chemical substance (yeast gene YKL104C): 2.2 | level of expressed mRNA in the presence/in the absence of chemical substance (yeast gene YKL148C): 1.5 | The level of expressed mRNA in the presence of chemical substance/The level of expressed mRNA in the absence of chemical substance (yeast gene YKL152C): 1.7 | level of expressed mRNA in the presence/in the absence of chemical substance (yeast gene YKL157W): 1.5 | The level of expressed mRNA in the presence of chemical substance/The level of expressed mRNA in the absence of chemical substance (yeast gene YKL213C): 1.3 | The level of expressed mRNA in the presence of chemical substance/The level of expressed mRNA in the absence of chemical substance (yeast gene YKL215C): 0.5 | The level of expressed mRNA in the presence of chemical substance/The level of expressed mRNA in the absence of chemical substance (yeast gene YKR039W): 1.9 | The level of expressed mRNA in the presence of chemical substance/The level of expressed mRNA in the absence of chemical substance (yeast gene YLL058W): 2.0 | level of expressed mRNA in the presence/in the absence of chemical substance (yeast gene YLR006C): 1.5 | level of expressed mRNA in the presence/in the absence of chemical substance (yeast gene YLR044C): 1.1 | level of expressed mRNA in the presence/in the absence of chemical substance (yeast gene YLR056W): 0.8 | level of expressed mRNA in the presence/in the absence of chemical substance (yeast gene YLR058C): 2.6 | level of expressed mRNA in the presence/in the absence of chemical substance (yeast gene YLR081W): 2.6 | level of expressed mRNA in the presence/in the absence of chemical substance (yeast gene YLR089C): 1.7 | The level of expressed mRNA in the presence of chemical substance/The level of expressed mRNA in the absence of chemical substance (yeast gene YLR180W): 1.7 | The level of expressed mRNA in the presence of chemical substance/The level of expressed mRNA in the absence of chemical substance (yeast gene YLR273C): 1.4 | level of expressed mRNA in the presence/in the absence of chemical substance (yeast gene YLR284C): 1.5 | The level of expressed mRNA in the presence of chemical substance/The level of expressed mRNA in the absence of chemical substance (yeast gene YLR299W): 1.7 | The level of expressed mRNA in the presence of chemical substance/The level of expressed mRNA in the absence of chemical substance (yeast gene YLR300W): 1.0 | level of expressed mRNA in the presence/in the absence of chemical substance (yeast gene YLR304C): 1.6 | The level of expressed mRNA in the presence of chemical substance/The level of expressed mRNA in the absence of chemical substance (yeast gene YLR307W): 0.8 | The level of expressed mRNA in the presence of chemical substance/The level of expressed mRNA in the absence of chemical substance (yeast gene YLR348C): 1.3 | level of expressed mRNA in the presence/in the absence of chemical substance (yeast gene YLR354C): 1.7 | level of expressed mRNA in the presence/in the absence of chemical substance (yeast gene YLR372W): 0.9 | level of expressed mRNA in the presence/in the absence of chemical substance (yeast gene YML022W): 1.2 | The level of expressed mRNA in the presence of chemical substance/The level of expressed mRNA in the absence of chemical substance (yeast gene YML054C): 1.4 | The level of expressed mRNA in the presence of chemical substance/The level of expressed mRNA in the absence of chemical substance (yeast gene YML058W): 3.3 | The level of expressed mRNA in the presence of chemical substance/The level of expressed mRNA in the absence of chemical substance (yeast gene YML070W): 1.5 | The level of expressed mRNA in the presence of chemical substance/The level of expressed mRNA in the absence of chemical substance (yeast gene YML100W): 3.2 | The level of expressed mRNA in the presence of chemical substance/The level of expressed mRNA in the absence of chemical substance (yeast gene YMR008C): 1.3 | level of expressed mRNA in the presence/in the absence of chemical substance (yeast gene YMR011W): 1.5 | level of expressed mRNA in the presence/in the absence of chemical substance (yeast gene YMR015C): 1.0 | The level of expressed mRNA in the presence of chemical substance/The level of expressed mRNA in the absence of chemical substance (yeast gene YMR020W): 1.5 | level of expressed mRNA in the presence/in the absence of chemical substance (yeast gene YMR083W): 1.6 | The level of expressed mRNA in the presence of chemical substance/The level of expressed mRNA in the absence of chemical substance (yeast gene YMR105C): 3.0 | The level of expressed mRNA in the presence of chemical substance/The level of expressed mRNA in the absence of chemical substance (yeast gene YMR189W): 8.2 | level of expressed mRNA in the presence/in the absence of chemical substance (yeast gene YMR205C): 1.0 | level of expressed mRNA in the presence/in the absence of chemical substance (yeast gene YMR261C): 0.8 | The level of expressed mRNA in the presence of chemical substance/The level of expressed mRNA in the absence of chemical substance (yeast gene YMR271C): 1.7 | The level of expressed mRNA in the presence of chemical substance/The level of expressed mRNA in the absence of chemical substance (yeast gene YMR296C): 0.8 | level of expressed mRNA in the presence/in the absence of chemical substance (yeast gene YMR323W): 2.5 | The level of expressed mRNA in the presence of chemical substance/The level of expressed mRNA in the absence of chemical substance (yeast gene YNL012W): 1.6 | level of expressed mRNA in the presence/in the absence of chemical substance (yeast gene YNL025C): 1.1 | The level of expressed mRNA in the presence of chemical substance/The level of expressed mRNA in the absence of chemical substance (yeast gene YNL045W): 2.1 | The level of expressed mRNA in the presence of chemical substance/The level of expressed mRNA in the absence of chemical substance (yeast gene YNL104C): 2.1 | The level of expressed mRNA in the presence of chemical substance/The level of expressed mRNA in the absence of chemical substance (yeast gene YNL106C): 0.9 | The level of expressed mRNA in the presence of chemical substance/The level of expressed mRNA in the absence of chemical substance (yeast gene YNL169C): 0.8 | level of expressed mRNA in the presence/in the absence of chemical substance (yeast gene YNL192W): 1.1 | The level of expressed mRNA in the presence of chemical substance/The level of expressed mRNA in the absence of chemical substance (yeast gene YNL231C): 1.3 | The level of expressed mRNA in the presence of chemical substance/The level of expressed mRNA in the absence of chemical substance (yeast gene YNL322C): 0.6 | The level of expressed mRNA in the presence of chemical substance/The level of expressed mRNA in the absence of chemical substance (yeast gene YNL331C): 21.8 | The level of expressed mRNA in the presence of chemical substance/The level of expressed mRNA in the absence of chemical substance (yeast gene YNL332W): 2.6 | The level of expressed mRNA in the presence of chemical substance/The level of expressed mRNA in the absence of chemical substance (yeast gene YNR019W): 0.7 | The level of expressed mRNA in the presence of chemical substance/The level of expressed mRNA in the absence of chemical substance (yeast gene YNR033W): 0.4 | The level of expressed mRNA in the presence of chemical substance/The level of expressed mRNA in the absence of chemical substance (yeast gene YNR059W): 1.0 | The level of expressed mRNA in the presence of chemical substance/The level of expressed mRNA in the absence of chemical substance (yeast gene YOL058W): 2.3 | level of expressed mRNA in the presence/in the absence of chemical substance (yeast gene YOL086C): 2.6 | level of expressed mRNA in the presence/in the absence of chemical substance (yeast gene YOL108C): 1.1 | level of expressed mRNA in the presence/in the absence of chemical substance (yeast gene YOL116W): 1.0 | The level of expressed mRNA in the presence of chemical substance/The level of expressed mRNA in the absence of chemical substance (yeast gene YOL126C): 1.8 | The level of expressed mRNA in the presence of chemical substance/The level of expressed mRNA in the absence of chemical substance (yeast gene YOL153C): 2.4 | level of expressed mRNA in the presence/in the absence of chemical substance (yeast gene YOL156W): 1.1 | The level of expressed mRNA in the presence of chemical substance/The level of expressed mRNA in the absence of chemical substance (yeast gene YOL165C): 17.6 | level of expressed mRNA in the presence/in the absence of chemical substance (yeast gene YOR002W): 1.2 | level of expressed mRNA in the presence/in the absence of chemical substance (yeast gene YOR085W): 1.1 | The level of expressed mRNA in the presence of chemical substance/The level of expressed mRNA in the absence of chemical substance (yeast gene YOR099W): 1.2 | level of expressed mRNA in the presence/in the absence of chemical substance (yeast gene YOR103C): 1.0 | level of expressed mRNA in the presence/in the absence of chemical substance (yeast gene YOR108W): 1.4 | level of expressed mRNA in the presence/in the absence of chemical substance (yeast gene YOR128C): 0.8 | The level of expressed mRNA in the presence of chemical substance/The level of expressed mRNA in the absence of chemical substance (yeast gene YOR130C): 0.6 | level of expressed mRNA in the presence/in the absence of chemical substance (yeast gene YOR142W): 1.5 | level of expressed mRNA in the presence/in the absence of chemical substance (yeast gene YOR176W): 1.4 | level of expressed mRNA in the presence/in the absence of chemical substance (yeast gene YOR178C): 4.1 | level of expressed mRNA in the presence/in the absence of chemical substance (yeast gene YOR251C): 1.0 | The level of expressed mRNA in the presence of chemical substance/The level of expressed mRNA in the absence of chemical substance (yeast gene YOR336W): 1.4 | The level of expressed mRNA in the presence of chemical substance/The level of expressed mRNA in the absence of chemical substance (yeast gene YOR347C): 1.4 | level of expressed mRNA in the presence/in the absence of chemical substance (yeast gene YOR348C): 1.1 | The level of expressed mRNA in the presence of chemical substance/The level of expressed mRNA in the absence of chemical substance (yeast gene YPL017C): 0.4 | level of expressed mRNA in the presence/in the absence of chemical substance (yeast gene YPL028W): 1.2 | level of expressed mRNA in the presence/in the absence of chemical substance (yeast gene YPL057C): 1.6 | level of expressed mRNA in the presence/in the absence of chemical substance (yeast gene YPL135W): 1.3 | level of expressed mRNA in the presence/in the absence of chemical substance (yeast gene YPL148C): 3.5 | The level of expressed mRNA in the presence of chemical substance/The level of expressed mRNA in the absence of chemical substance (yeast gene YPR026W): 1.6 | level of expressed mRNA in the presence/in the absence of chemical substance (yeast gene YPR113W): 2.0 | The level of expressed mRNA in the presence of chemical substance/The level of expressed mRNA in the absence of chemical substance (yeast gene YPR160W): 4.4 | level of expressed mRNA in the presence/in the absence of chemical substance (yeast gene YPR165W): 1.0 | The level of expressed mRNA in the presence of chemical substance/The level of expressed mRNA in the absence of chemical substance (yeast gene YPR167C): 1.9 | level of expressed mRNA in the presence/in the absence of chemical substance (yeast gene YPR183W): 2.5 | The level of expressed mRNA in the presence of chemical substance/The level of expressed mRNA in the absence of chemical substance (yeast gene YPR184W): 3.6
